{"source": "paper PMC3447118", "about": "(Bioconjugate chemistry, 2012)", "key": {"[1]": {"test": "microPET imaging of U87MG tumor xenografts in mice", "format": "in vivo, nude mice", "settings": "nude, mouse, iv, total radioactivity"}, "[2]": {"tested_on": "U87MG tumor xenografts", "test": "microPET imaging of U87MG tumor xenografts in mice", "format": "in vivo, nude mice"}, "[3]": {"settings": "tumor versus muscle (background)"}}}
{"compound": "N=C(N)NCCC[C@@H]1NC(=O)[C@H](CCCCNC(=O)CC[C@H](NC(=O)COCCOCCOCCNC(=O)[C@@H]2CSC(c3nc4ccc(OCCF)cc4s3)=N2)C(=O)NCCCC[C@@H]2NC(=O)[C@@H](Cc3ccc(O)cc3)NC(=O)[C@H](CC(=O)O)NC(=O)CNC(=O)[C@H](CCCNC(=N)N)NC2=O)NC(=O)[C@@H](Cc2ccc(O)cc2)NC(=O)[C@H](CC(=O)O)NC(=O)CNC1=O", "note": "[[^18F]CBTRGD2]", "values": [{"measurement": "tissue uptake at 0.5 h", "setting": "[1]; kidney, 20 mg/kg", "result": "2.76 ± 0.85", "unit": "%ID/g"}, {"measurement": "tissue uptake at 1 h", "setting": "[1]; kidney, 20 mg/kg", "result": "1.26 ± 0.23", "unit": "%ID/g"}, {"measurement": "tissue uptake at 2 h", "setting": "[1]; kidney, 20 mg/kg", "result": "0.81 ± 0.04", "unit": "%ID/g"}, {"measurement": "tissue uptake at 0.5 h", "setting": "[1]; kidney", "result": "5.46 ± 1.1", "unit": "%ID/g"}, {"measurement": "tissue uptake at 1 h", "setting": "[1]; kidney", "result": "3.99 ± 1.08", "unit": "%ID/g"}, {"measurement": "tissue uptake at 2 h", "setting": "[1]; kidney", "result": "2.26 ± 0.67", "unit": "%ID/g"}, {"measurement": "tissue uptake at 0.5 h", "setting": "[1]; liver, 20 mg/kg", "result": "1.34 ± 0.06", "unit": "%ID/g"}, {"measurement": "tissue uptake at 1 h", "setting": "[1]; liver, 20 mg/kg", "result": "0.7 ± 0.08", "unit": "%ID/g"}, {"measurement": "tissue uptake at 2 h", "setting": "[1]; liver, 20 mg/kg", "result": "0.32 ± 0.01", "unit": "%ID/g"}, {"measurement": "tissue uptake at 0.5 h", "setting": "[1]; liver", "result": "3.64 ± 0.76", "unit": "%ID/g"}, {"measurement": "tissue uptake at 1 h", "setting": "[1]; liver", "result": "2.84 ± 0.76", "unit": "%ID/g"}, {"measurement": "tissue uptake at 2 h", "setting": "[1]; liver", "result": "2.15 ± 0.53", "unit": "%ID/g"}, {"measurement": "tissue to tissue ratio at 0.5 h", "setting": "[1]; [3]", "result": "4.5 ± 0.83"}, {"measurement": "tissue to tissue ratio at 1 h", "setting": "[1]; [3]", "result": "5.4 ± 0.72"}, {"measurement": "tissue to tissue ratio at 2 h", "setting": "[1]; [3]", "result": "6.3 ± 1.1"}, {"measurement": "tissue uptake at 0.5 h", "setting": "[1]; tumor, 20 mg/kg", "result": "1.62 ± 0.1", "unit": "%ID/g"}, {"measurement": "tissue uptake at 1 h", "setting": "[1]; tumor, 20 mg/kg", "result": "1.26 ± 0.13", "unit": "%ID/g"}, {"measurement": "tissue uptake at 2 h", "setting": "[1]; tumor, 20 mg/kg", "result": "0.49 ± 0.02", "unit": "%ID/g"}, {"measurement": "tissue uptake at 1 h", "setting": "[1]; tumor", "result": "4.25 ± 0.82", "unit": "%ID/g"}, {"measurement": "tissue uptake at 2 h", "setting": "[1]; tumor", "result": "3.35 ± 0.71", "unit": "%ID/g"}, {"measurement": "specific tumor uptake higher than that of [18F]FPPRGD2", "setting": "[2]; 30 min, comparison in the same mice (Fig S5, Table S1)", "result": 50, "unit": "%"}, {"measurement": "uptakes in organs such as liver and kidney compared with [18F]FPPRGD2", "setting": "[2]; comparison in the same mice", "result": "higher"}]}
